Laboratory results taken from patent US11021490B2, “Pyridinium oxazole dyad scaffold and a process for preparation thereof” (COUNCIL OF SCIENTIFIC AND INDUSTRIAL RESEARCH, priority 2016, dated 2021).

Legend:
[1] = Spectral (photophysical) properties of representative derivatives in DCM at room temperature; format: physicochemical; parameters: τf (fluorescent lifetime): unit not given here; conditions: for ΔStokes (Stokes shift=λem−λabs) / λabs (maximum absorption band more than 300 nm) / λem (excited at the longest maximum absorption band) / λex (excited wavelength) / τf (fluorescent lifetime) / ϕf (quantum yield): DCM, RM, 10−5M; for ϕf (quantum yield): quinine sulfate and rhodamine 6G as standard; for Effect of substituent on the fluorescent properties / emission: CH2Cl2 at RT
Text: The photo-physical properties of representative salts are studied in CH2Cl2 at RT (FIG. 1).
The corresponding absorption, emission and excitation, spectra are depicted in FIGS. 3, 4 and 5. […] The compounds display good quantum yields upto 0.76.
a The maximum absorption bands more than 300 nm; b Excited at the longest maximum absorption band in CH2Cl2; ^cExcited wavelength; ^dStokes shift=λem−λabs; ^eQuinine sulfate and rhodamine 6G was used as the standard; ^fFluorescent lifetime
The current invention provides compounds that display brightly fluorescence as well as a good ϕf. The salts are a novel class of fluorescent materials that contain a pyridinium-oxazole functional group and the photo-physical properties of representative salts are studied in CH2Cl2 at RT The absorption and excitation maxima, the photoluminescence (PL) maxima and quantum yields (FF), as well as the excited state lifetimes (tf) of these compounds in CH2Cl2 solution are listed in Tables 3, whereas the corresponding absorption, emission, excitation spectra are depicted in FIGS. 3, 4 and 5. […] These observations are indicative of a predominant π-π* character for the lowest excited state, and the life time tf values are consistent with a singlet multiplicity. Most of these compounds display good quantum yields upto 0.76 (3n). The radiative rate constants are barely affected by the substitution pattern, an indication of the similar excited state character for all compounds.

MCF-7 cells = assay: Localization and staining of mitochondria in living MCF-7 cells by fluorescence microscopy, with MitoTracker Green costaining; format: cell-based; conditions: 1 μM, 1 h
Protocol: MCF-7 cells were obtained from National Centre for Cell Science, Pune, India. For bio imaging purpose, the cells were seeded in a 6 well plate at a density of 10^5 cells/mL in Dulbecco's Modified Eagle's Medium+Ham's F12 containing 10% fetal bovine serum and a 0.1% antibiotic solution for 24 h at […] and 5% CO2 for adherence
MCF-7 cells (1×10^4 cells/mL/well) were seeded in a 6-well tissue culture plate for 48 h. The cells were then treated with 1 μM concentration of different organic molecules for 30 minutes. After thorough washing with 1×PBS (P^H 7.4), the cells are fixed used paraformaldehye (4% in PBS) for 15 minutes. Then cells were washed using 1×PBS twice. Further cells are permeated using 0.4% triton X in PBS for 30 seconds followed by treatment with 1 μg/mL of DAPI solution for 15 minutes. The cells are again ished twice with 1×PBS (P^H 7.4). Finally, a confocal fluorescence microscope (Nikon Eclipse: TE 2000-E, Japan). Bioimaging studies are carried out using red and green filters. (FIG. 2)
Cells are cultured and maintained as described above. Cells were treated with 1 μM compound for 30 min followed by washing with PBS. Further cells were treated with […] MG for 10 min and then washed with PBS. Cells were fixed and treated with DAPI as described above.
MCF-7 cells were incubated with 1 μM of 3n for 1 h, and excess dyes were washed away by buffer solution.

Row | Compound | melting point | ΔStokes (Stokes shift=λem−λabs) [1] | λabs (maximum absorption band more than 300 nm) [1] | λem (excited at the longest maximum absorption band) [1] | λex (excited wavelength) [1] | τf (fluorescent lifetime) [1] | ϕf (quantum yield) [1] | Effect of substituent on the fluorescent properties / emission [1] | Staining / localization in mitochondria (MCF-7 cells)
1 | F[B-](F)(F)F.c1ccc2c(c1)-c1cccc3oc(-c4cccc5ccccc45)c-2[n+]13 | 198 to 200 °C |  |  |  |  |  |  |  | 
2 | Cc1ccc(-c2oc3cccc4[n+]3c2-c2ccccc2-4)cc1.F[B-](F)(F)F | 222 to 223 °C |  |  |  |  |  |  |  | 
3 | CC(C)c1ccc(-c2oc3cccc4[n+]3c2-c2ccccc2-4)cc1.F[B-](F)(F)F | 214 to 215 °C |  |  |  |  |  |  |  | 
4 | CCCCOc1ccc(-c2oc3cccc4[n+]3c2-c2ccccc2-4)cc1.F[B-](F)(F)F | 183 to 185 °C |  |  |  |  |  |  |  | 
5 | CCCCC(=O)c1ccc(-c2oc3cccc4[n+]3c2-c2ccccc2-4)cc1.F[B-](F)(F)F | 202 to 204 °C |  |  |  |  |  |  |  | 
6 | COc1ccccc1-c1oc2cccc3[n+]2c1-c1ccccc1-3.F[B-](F)(F)F | 228 to 229 °C |  |  |  |  |  |  |  | 
7 | Clc1cccc(-c2oc3cccc4[n+]3c2-c2ccccc2-4)c1.F[B-](F)(F)F | 204 to 206 °C |  |  |  |  |  |  |  | 
8 | Cc1cccc2c1-c1cccc3oc(-c4ccccc4)c-2[n+]13.F[B-](F)(F)F | 220 to 221 °C |  |  |  |  |  |  |  | 
9 | Cc1ccc2c(c1)-c1cccc3oc(-c4ccccc4)c-2[n+]13.F[B-](F)(F)F | 224 to 226 °C |  |  |  |  |  |  |  | 
10 | F[B-](F)(F)F.Fc1ccc2c(c1)-c1cccc3oc(-c4ccccc4)c-2[n+]13 | 255 to 256 °C |  |  |  |  |  |  |  | 
11 | Clc1ccc2c(c1)-c1cccc3oc(-c4ccccc4)c-2[n+]13.F[B-](F)(F)F | 208 to 210 °C |  |  |  |  |  |  |  | 
12 | Clc1ccc2c(c1)-c1c(-c3ccccc3)oc3cccc-2[n+]13.F[B-](F)(F)F | 206 to 208 °C |  |  |  |  |  |  |  | 
13 | F[B-](F)(F)F.c1ccc(-c2oc3cccc4[n+]3c2-c2ccccc2-4)cc1 [3a, 1-phenylbenzo[a]oxazolo[4,3,2-cd]indolizin-10-ium tetrafluoroborate] | 192 to 193 °C | 036 nm | 368 nm | 404 nm | 338 nm | 1.2 | 0.10 |  | 
14 | F[B-](F)(F)F.c1ccc2c(c1)-c1cccc3oc(-c4ccc5ccccc5c4)c-2[n+]13 [3c, 1-(naphthalen-2-yl)benzo[a]oxazolo[4,3,2-cd]indolizin-10-iumtetrafluoroborate] |  | 071 nm | 410 nm | 481 nm | 364 nm | 5.2 | 0.49 | stronger effect on the fluorescent properties | 
15 | F[B-](F)(F)F.c1ccc2c(c1)-c1cccc3oc(-c4cc5ccccc5c5ccccc45)c-2[n+]13 [3d, 1-(phenanthren-9-yl)benzo[a]oxazolo[4,3,2-cd]indolizin-10-ium tetrafluoroborate] | 230 to 232 °C | 076 nm | 411 nm | 487 nm | 365 nm | 7.2 | 0.54 | stronger effect on the fluorescent properties | 
16 | COc1ccc(-c2oc3cccc4[n+]3c2-c2ccccc2-4)cc1.F[B-](F)(F)F [3j, 1-(4-methoxyphenyl)benzo[a]oxazolo[4,3,2-cd]indolizin-10-ium tetrafluoroborate] | 190 to 192 °C | 053 nm | 405 nm | 458 nm | 338 nm | 2.4 | 0.42 | only a modest effect on the fluorescent properties | 
17 | F[B-](F)(F)F.Fc1ccc(-c2oc3cccc4[n+]3c2-c2ccccc2-4)cc1 [3l, 1-(4-fluorophenyl)benzo[a]oxazolo[4,3,2-cd]indolizin-10-ium tetrafluoroborate] | 254 to 255 °C | 042 nm | 372 nm | 414 nm | 343 nm | 0.9 | 0.09 | only a modest effect on the fluorescent properties | 
18 | Clc1ccc(-c2oc3cccc4[n+]3c2-c2ccccc2-4)cc1.F[B-](F)(F)F [3m, 1-(4-chlorophenyl)benzo[a]oxazolo[4,3,2-cd]indolizin-10-ium tetrafluoroborate] | 274 to 275 °C | 040 nm | 370 nm | 410 nm | 339 nm | 1.7 | 0.19 |  | 
19 | CN(C)c1ccc(-c2oc3cccc4[n+]3c2-c2ccccc2-4)cc1.F[B-](F)(F)F [3n, 1-(4-(dimethylamino)phenyl)benzo[a]oxazolo[4,3,2-cd]indolizin-10-ium tetrafluoroborate] | 242 to 244 °C | 049 nm | 506 nm | 555 nm | 511 nm | 9.1 | 0.76 |  | stains specifically the mitochondrial region
20 | COc1cccc(-c2oc3cccc4[n+]3c2-c2ccccc2-4)c1.F[B-](F)(F)F [3q, 1-(3-methoxyphenyl)benzo[a]oxazolo[4,3,2-cd]indolizin-10-ium tetrafluoroborate] | 206 to 208 °C | 079 nm | 376 nm | 455 nm | 332 nm | 2.0 | 0.20 |  | 
21 | COc1ccc(Cl)c(-c2cc3ccccc3c3cccc(=O)n23)c1 [3y″, 6-(2-chloro-5-methoxyphenyl)-4H-pyrido[2,1-a]isoquinolin-4-one] | 186 to 187 °C |  |  |  |  |  |  |  | 
22 | Cc1ccc(/C=c2\c3ccccc3c3cccc(=O)n23)cc1Cl [3z″, (E)-6-(3-chloro-4-methylbenzylidene)pyrido[2,1-a]isoindol-4(6H)-one] | 194 to 195 °C |  |  |  |  |  |  |  | 
